Source: EP3858336A1, “AMORPHOUS SOLID DISPERSION OF 8-CHLORO-N-(4-(TRIFLUOROMETHOXY)PHENYL)QUINOLIN-2-AMINE” (ABIVAX, priority 2020, dated 2021)

Columns and labels:
[1] = Two-step dissolution / precipitation Fasted Human in-vitro model (Fassif); assay type: physicochemical; conditions: thermodynamic from solid, final pH = 6.5, 30min in FaSSGF pH1.2 + 120min in FaSSIF x2 pH6.5 / Sodium bicarbonate 90/10 v/v, 37°C, read-out: solubility (HPLC-UV dosage of supernatant), last measurement point
Protocol: (§1) ABX464 in its unique crystalline form and ABX464 :VA64 ASD (prepared according to example 1 above) were tested by using both Fasted and Fed Human in-vitro models (respectively named Fassif and Fessif models). These models simulate respectively fasted and fed state gastrointestinal fluids for dissolution testing.
For the Fasted in-vitro model, 11.4mg of ABX464:VA64 ASD (4.0mg equivalent ABX464) were weighed in 6 different vials. In all vials, 1ml of FaSSGF pH1.2 solution pre-heated at 37°C were added. Suspension were then vortexed at 37°C. After 15min vortex, suspension of the first vial was centrifuged 5min at 18000 rpm and filtered under 0.45µm filter (Millex LCR filter ref. SLCR0.13NK) for HPLC-UV dosage of supernatant. After 30min vortex, suspension of the second vial was centrifuged 5min at 18000 rpm and filtered under 0.45µm filter (Millex LCR filter ref. SLCR0.13NK) for HPLC-UV dosage of supernatant.
After 30min vortex, 1ml of FaSSIF x2 pH6.5 / Sodium bicarbonate 90/10 v/v pre-heated at 37°C was added on other 4 vials. Suspension were then vortexed at 37°C. After 15min vortex, suspension of the third vial was centrifuged 5min at 18000 rpm and filtered under 0.45µm filter (Millex LCR filter ref. SLCR0.13NK) for HPLC-UV dosage of supernatant. […]

[2] = Two-step dissolution / precipitation Fed Human in-vitro model (Fessif); assay type: physicochemical; conditions: thermodynamic from solid, final pH 5.0, 60min in FeSSGF pH3.0 + 120min in FeSSIF x3 pH5.0, 37°C, read-out: solubility (HPLC-UV dosage of supernatant), last measurement point
Protocol: as §1
For the Fed in-vitro model, 11.4mg of ABX464:VA64 ASD (4.0mg equivalent ABX464) were weighed in 7 different vials. In all vials, 1ml of FeSSGF pH3.0 solution pre-heated at 37°C were added. Suspension were then vortexed at 37°C. After 15min vortex, suspension of the first vial was centrifuged 5min at 18000 rpm and filtered under 0.45µm filter (Millex LCR filter ref. SLCR0.13NK) for HPLC-UV dosage of supernatant. After 30min vortex, suspension of the second vial was centrifuged 5min at 18000 rpm and filtered under 0.45µm filter (Millex LCR filter ref. SLCR0.13NK) for HPLC-UV dosage of supernatant. After 60min vortex, suspension of the third vial was centrifuged 5min at 18000 rpm and filtered under 0.45µm filter (Millex LCR filter ref. SLCR0.13NK) for HPLC-UV dosage of supernatant.
After 60min vortex, 0.5ml of FeSSIF x3 pH5.0 pre-heated at 37°C was added on other 4 vials. Suspension were then vortexed at 37°C. […]

solubility at 120 min [1]: 70 µg/mL
solubility at 120 min [2]: 508 µg/mL
Structure (SMILES): FC(F)(F)Oc1ccc(Nc2ccc3cccc(Cl)c3n2)cc1 [ABX464, 8-Chloro-N-(4-(trifluoromethoxy)phenyl)quinolin-2-amine]
